What was measured:
[1] = system: MIA PaCa-2 pancreatic cancer; experiment: MIA PaCa-2 pancreatic cancer xenograft; conditions: 100 mg/kg ip, weekly, Day 15
[2] = system: NCI-N87 Her2+ gastric cancer; experiment: NCI-N87 (Her2+) gastric cancer xenograft in athymic nude mice; type: in vivo; conditions: 40 mg/kg oral, thrice weekly for three weeks, day 21
Experimental: The efficacy of Compound 1 was compared to that of SNX-5422 (Serenex, Pfizer, Inc.) on the growth of NCI-N87 (Her2+) human gastric cancer cells as a xenograft in athymic nude mice model. Animals were dosed with either 200 mg/kg of Compound 1 on days 1 through 21 or 40 mg/kg of SNX-5422 thrice weekly for three weeks. Tumor volumes and body weights were determined from Days 1 to 39.
Five million NCI-N87 cells were implanted subcutaneously in the right flank of female nude mice (Hsd:athymic nude-Foxn1^nu). When the median tumor volume was approximately 123 mm^3, mice were randomized into three cohorts of ten animals. One cohort was dosed orally with vehicle, one cohort was dosed orally with Compound 1 (200 mg/kg) formulated in vehicle, and one cohort was dosed orally with SNX-5422 (40 mg/kg) formulated in dimethylacetamide/polyethylene glycol 300. Vehicle and Compound 1 were administered on days 1-21 and SNX-5422 was administered thrice weekly on Days 1, 3, 5, 8, 10, 12, 15, 17 and 19. The mice were observed daily for mortality and signs of toxicity.
Xenografted mice bearing N-87 tumors (median volume ˜125 mm^3) were dosed orally with Compound 1 for three weeks with the dosing schedules indicated in FIG. 4.
Additionally, xenografted mice bearing N-87 tumors (median volume ˜115 mm^3) were dosed orally with Compound 1 for twenty-one days at 200 mg/kg, once daily or 100 mg/kg, twice-daily as indicated in FIG. 5. Tumor growth inhibition (TGI) was monitored up to Day 39.

[3] = system: A549 non-small cell lung cancer; experiment: A549 non-small cell lung cancer xenograft; type: in vivo, mice; conditions: maximum tolerated dose, oral once daily for 21 days, Day 22

In the case of O=c1[nH]cc(F)c(=O)[nH]1 [5-Fluorouracil, reference compound], the “TGI (tumor growth inhibition)” value [1] was 58%.
In the case of CC1(C)CC(=O)c2c(C(F)(F)F)nn(-c3ccc(C(N)=O)c(N[C@H]4CC[C@H](OC(=O)CN)CC4)c3)c2C1 [SNX-5422, reference compound], the “decrease in median tumor volume” value [2] was 22%.
In the case of C#Cc1cccc(Nc2ncnc3cc(OCCOC)c(OCCOC)cc23)c1 [erlotinib], the “TGI (tumor growth inhibition)” value [3] was 88%.

— patent US20120277257A1, “Methods of Treating Diseases, Pharmaceutical Compositions, and Pharmaceutical Dosage Forms” (MYREXIS, INC., priority 2009, published 2012)
